In experiment [1] the target is Gamma-aminobutyric acid receptor subunit alpha-1 (Rattus norvegicus, UniProt P62813). Type of experiment: functional.
For experiment [2], the target named is T1, Alpha-2C adrenergic receptor (Homo sapiens, UniProt P18825).
T1 sequence (P18825 whole entry): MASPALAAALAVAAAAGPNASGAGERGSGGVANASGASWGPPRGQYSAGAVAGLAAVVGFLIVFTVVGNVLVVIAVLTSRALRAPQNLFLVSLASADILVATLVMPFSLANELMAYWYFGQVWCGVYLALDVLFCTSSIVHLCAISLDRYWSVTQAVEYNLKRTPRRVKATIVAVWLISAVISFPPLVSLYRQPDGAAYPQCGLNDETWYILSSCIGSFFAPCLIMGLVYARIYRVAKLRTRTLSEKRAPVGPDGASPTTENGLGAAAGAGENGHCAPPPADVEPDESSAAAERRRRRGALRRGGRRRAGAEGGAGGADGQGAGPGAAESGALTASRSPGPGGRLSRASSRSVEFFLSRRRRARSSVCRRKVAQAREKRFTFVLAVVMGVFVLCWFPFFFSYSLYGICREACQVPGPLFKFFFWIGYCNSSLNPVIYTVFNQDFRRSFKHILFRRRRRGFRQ
Type of experiment: functional.

The target in experiment [3] is Delta-type opioid receptor (Homo sapiens, UniProt P41143).
For experiment [4], the target named is 5-hydroxytryptamine receptor 2B (Homo sapiens, UniProt P41595). It counts as functional, cell-based.
The target of experiment [5] is T2, Prostaglandin G/H synthase 1 (Rattus norvegicus, UniProt Q63921).
T2 sequence (Q63921 whole entry): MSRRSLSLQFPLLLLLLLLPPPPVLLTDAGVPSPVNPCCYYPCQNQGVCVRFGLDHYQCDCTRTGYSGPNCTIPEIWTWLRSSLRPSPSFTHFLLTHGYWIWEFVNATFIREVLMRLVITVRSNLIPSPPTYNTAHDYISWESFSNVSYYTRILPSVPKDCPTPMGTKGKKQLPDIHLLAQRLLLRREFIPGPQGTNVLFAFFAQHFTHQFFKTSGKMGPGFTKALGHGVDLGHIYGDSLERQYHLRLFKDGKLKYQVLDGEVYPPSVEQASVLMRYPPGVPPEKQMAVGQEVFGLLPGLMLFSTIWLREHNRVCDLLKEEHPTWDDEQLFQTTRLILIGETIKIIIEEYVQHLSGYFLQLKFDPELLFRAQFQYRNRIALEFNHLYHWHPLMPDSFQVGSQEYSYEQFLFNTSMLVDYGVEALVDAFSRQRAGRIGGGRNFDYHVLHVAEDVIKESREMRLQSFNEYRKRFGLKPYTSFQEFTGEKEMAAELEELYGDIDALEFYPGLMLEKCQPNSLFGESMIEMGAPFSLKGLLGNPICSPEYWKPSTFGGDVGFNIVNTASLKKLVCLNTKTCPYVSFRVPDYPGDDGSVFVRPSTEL
Type of experiment: functional.

In experiment [6] the target is T3, 5-hydroxytryptamine receptor 3A (Homo sapiens, UniProt P46098).
T3 sequence (P46098 whole entry): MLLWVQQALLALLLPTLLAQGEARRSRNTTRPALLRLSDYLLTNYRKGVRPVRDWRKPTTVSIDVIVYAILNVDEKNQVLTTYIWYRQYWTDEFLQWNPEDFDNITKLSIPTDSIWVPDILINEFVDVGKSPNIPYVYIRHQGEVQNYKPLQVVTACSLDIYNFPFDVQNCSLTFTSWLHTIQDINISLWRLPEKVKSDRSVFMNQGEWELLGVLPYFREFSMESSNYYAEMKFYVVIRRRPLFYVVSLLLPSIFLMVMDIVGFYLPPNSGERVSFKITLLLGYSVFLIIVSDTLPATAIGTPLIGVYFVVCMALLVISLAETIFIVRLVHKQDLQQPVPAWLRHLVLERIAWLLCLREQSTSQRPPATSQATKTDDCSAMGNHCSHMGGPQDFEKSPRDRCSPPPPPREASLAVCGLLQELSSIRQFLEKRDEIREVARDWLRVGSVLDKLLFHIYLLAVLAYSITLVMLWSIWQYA
It counts as functional.

In experiment [7] the target is T4, 5-hydroxytryptamine receptor 2C (Homo sapiens, UniProt P28335).
T4 sequence (P28335 whole entry): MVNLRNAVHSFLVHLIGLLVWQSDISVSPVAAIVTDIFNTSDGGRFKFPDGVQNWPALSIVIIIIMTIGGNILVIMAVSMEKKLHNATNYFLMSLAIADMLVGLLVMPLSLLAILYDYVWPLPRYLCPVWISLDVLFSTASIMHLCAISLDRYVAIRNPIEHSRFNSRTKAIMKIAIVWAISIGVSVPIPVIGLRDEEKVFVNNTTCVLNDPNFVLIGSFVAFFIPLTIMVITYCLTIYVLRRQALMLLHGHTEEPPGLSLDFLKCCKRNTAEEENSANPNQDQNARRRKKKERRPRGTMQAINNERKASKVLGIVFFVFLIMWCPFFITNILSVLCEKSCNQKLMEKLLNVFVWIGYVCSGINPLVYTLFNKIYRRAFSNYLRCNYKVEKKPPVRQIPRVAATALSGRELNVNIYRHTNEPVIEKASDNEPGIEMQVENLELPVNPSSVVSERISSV

Experiment [8] deals with Growth hormone secretagogue receptor type 1 (Homo sapiens, UniProt Q92847).
Experiment [9] has as its target 3',5'-cyclic-AMP phosphodiesterase 4D (Homo sapiens, UniProt Q08499). Type of experiment: functional.
Experiment [10] addresses T5, Amine oxidase [flavin-containing] A (Homo sapiens, UniProt P21397).
T5 sequence (P21397 whole entry): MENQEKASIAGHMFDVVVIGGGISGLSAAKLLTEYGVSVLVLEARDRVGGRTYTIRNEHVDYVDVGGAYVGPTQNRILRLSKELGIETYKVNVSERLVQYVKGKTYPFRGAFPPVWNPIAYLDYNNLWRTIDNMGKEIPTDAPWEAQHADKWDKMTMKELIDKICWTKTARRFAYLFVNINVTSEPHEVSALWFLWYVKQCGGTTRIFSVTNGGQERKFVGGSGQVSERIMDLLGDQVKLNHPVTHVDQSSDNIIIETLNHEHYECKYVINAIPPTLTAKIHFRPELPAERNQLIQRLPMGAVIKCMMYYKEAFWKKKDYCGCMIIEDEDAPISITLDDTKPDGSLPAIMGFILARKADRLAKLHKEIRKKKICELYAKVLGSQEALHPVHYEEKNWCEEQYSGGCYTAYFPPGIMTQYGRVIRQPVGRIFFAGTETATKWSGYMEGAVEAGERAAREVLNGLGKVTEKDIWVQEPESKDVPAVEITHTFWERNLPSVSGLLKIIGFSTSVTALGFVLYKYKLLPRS
Type of experiment: functional.

A value given as a limit tells only on which side of the number the result lay.
Also: assay procedure not described here.

Chain of Growth hormone secretagogue receptor type 1 (Q92847 whole entry): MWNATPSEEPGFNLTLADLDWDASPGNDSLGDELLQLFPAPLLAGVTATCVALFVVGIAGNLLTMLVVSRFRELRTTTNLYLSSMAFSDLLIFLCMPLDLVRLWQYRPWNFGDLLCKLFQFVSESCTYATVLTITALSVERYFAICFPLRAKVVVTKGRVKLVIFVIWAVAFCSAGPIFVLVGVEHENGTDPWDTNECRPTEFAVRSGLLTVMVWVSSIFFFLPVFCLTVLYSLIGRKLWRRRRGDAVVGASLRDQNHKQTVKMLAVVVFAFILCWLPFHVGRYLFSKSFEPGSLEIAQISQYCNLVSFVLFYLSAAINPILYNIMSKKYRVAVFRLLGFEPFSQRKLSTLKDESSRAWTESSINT
Chain of Gamma-aminobutyric acid receptor subunit alpha-1 (P62813 whole entry): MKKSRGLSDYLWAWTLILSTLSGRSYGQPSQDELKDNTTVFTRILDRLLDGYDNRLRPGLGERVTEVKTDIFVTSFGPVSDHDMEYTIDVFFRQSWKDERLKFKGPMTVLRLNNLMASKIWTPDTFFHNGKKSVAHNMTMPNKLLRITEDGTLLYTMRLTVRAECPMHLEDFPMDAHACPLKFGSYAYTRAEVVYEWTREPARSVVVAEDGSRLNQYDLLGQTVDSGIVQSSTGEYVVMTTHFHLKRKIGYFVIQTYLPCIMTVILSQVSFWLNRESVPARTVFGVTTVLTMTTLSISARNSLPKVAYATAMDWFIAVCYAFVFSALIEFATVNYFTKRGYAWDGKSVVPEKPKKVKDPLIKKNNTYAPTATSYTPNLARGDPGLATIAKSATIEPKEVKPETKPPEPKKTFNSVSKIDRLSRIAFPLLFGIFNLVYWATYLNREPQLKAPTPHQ
Chain of 5-hydroxytryptamine receptor 2B (P41595 whole entry): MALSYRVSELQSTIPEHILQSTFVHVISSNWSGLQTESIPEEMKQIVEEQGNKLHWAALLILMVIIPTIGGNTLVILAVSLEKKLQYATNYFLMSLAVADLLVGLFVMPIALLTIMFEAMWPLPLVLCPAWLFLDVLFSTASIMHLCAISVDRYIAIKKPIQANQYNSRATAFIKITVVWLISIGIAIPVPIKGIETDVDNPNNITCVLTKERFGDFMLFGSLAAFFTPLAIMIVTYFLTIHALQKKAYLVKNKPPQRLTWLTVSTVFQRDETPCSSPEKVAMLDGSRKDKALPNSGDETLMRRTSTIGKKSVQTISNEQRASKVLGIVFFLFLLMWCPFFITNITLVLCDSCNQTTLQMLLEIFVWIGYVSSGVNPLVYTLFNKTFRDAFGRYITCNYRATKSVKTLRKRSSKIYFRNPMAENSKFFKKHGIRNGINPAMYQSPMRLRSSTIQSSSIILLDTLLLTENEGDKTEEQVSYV
Chain of Delta-type opioid receptor (P41143 whole entry): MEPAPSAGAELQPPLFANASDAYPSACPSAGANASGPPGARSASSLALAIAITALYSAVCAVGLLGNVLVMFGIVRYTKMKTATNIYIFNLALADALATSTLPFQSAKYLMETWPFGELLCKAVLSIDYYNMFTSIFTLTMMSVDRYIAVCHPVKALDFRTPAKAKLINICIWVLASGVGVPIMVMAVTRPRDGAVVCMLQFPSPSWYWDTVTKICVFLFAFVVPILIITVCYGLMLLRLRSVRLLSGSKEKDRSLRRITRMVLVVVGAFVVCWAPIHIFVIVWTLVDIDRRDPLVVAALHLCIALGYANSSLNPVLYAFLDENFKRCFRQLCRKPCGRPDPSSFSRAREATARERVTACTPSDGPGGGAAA
Chain of 3',5'-cyclic-AMP phosphodiesterase 4D (Q08499 whole entry): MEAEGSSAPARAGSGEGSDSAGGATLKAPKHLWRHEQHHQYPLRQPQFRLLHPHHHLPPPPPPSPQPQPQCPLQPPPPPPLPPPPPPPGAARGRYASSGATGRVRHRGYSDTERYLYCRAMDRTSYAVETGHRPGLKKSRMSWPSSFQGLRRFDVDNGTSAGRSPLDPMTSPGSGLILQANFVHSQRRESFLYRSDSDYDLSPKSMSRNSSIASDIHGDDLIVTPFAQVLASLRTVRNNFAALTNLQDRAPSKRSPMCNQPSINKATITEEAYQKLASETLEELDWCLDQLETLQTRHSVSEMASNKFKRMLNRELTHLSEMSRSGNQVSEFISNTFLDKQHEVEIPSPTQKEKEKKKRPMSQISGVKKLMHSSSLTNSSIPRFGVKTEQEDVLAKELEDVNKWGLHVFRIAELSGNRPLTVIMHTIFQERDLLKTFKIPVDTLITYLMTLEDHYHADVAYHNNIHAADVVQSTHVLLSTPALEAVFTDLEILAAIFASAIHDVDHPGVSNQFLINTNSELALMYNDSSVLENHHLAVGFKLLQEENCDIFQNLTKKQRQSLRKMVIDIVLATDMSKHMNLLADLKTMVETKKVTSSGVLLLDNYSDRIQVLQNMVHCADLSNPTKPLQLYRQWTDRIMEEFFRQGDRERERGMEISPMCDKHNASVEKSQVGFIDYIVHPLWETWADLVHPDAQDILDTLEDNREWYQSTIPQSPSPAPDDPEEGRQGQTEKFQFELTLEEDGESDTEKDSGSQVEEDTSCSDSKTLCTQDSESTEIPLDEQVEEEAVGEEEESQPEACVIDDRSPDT

For `O=C1[C@@H]2[C@H]3CC[C@H](C3)[C@@H]2C(=O)N1C[C@@H]1CCCC[C@H]1CN1CCN(c2nsc3ccccc23)CC1` [LURASIDONE], the AC50 – broadly, the concentration giving half of the maximal activity seen – is more than 30 µM in experiment [1]; 1.1 µM in experiment [2]; more than 30 µM in experiment [3]; 0.071 µM in experiment [4]; more than 30 µM in [5]; more than 30 µM in experiment [6]. The AC50 is 25 µM in [7], more than 30 µM in [8], more than 30 µM in experiment [9] and more than 30 µM in experiment [10].
For `CNC1(C)C2CCC(C2)C1(C)C` (stereo not given) [MECAMYLAMINE], the AC50 in experiment [1] was more than 10 µM; in experiment [2], more than 10 µM; in experiment [3] it was more than 30 µM; in experiment [4] it was more than 10 µM; in experiment [5] it was more than 10 µM; in experiment [6], more than 30 µM. Also, the AC50 in [7] was more than 30 µM; in experiment [8], more than 10 µM; in experiment [9], more than 30 µM; in experiment [10] it was more than 10 µM.
Regarding `CO[C@@H]1[C@@H](OC(N)=O)[C@@H](O)[C@H](Oc2ccc3c(O)c(NC(=O)c4ccc(O)c(CC=C(C)C)c4)c(=O)oc3c2C)OC1(C)C` [NOVOBIOCIN], the AC50 in experiment [1], in experiment [2], in experiment [3], in [4], in [5] and in experiment [6] was more than 30 µM in each case. Further, the AC50 in experiment [7], in [8], in experiment [9] and in [10] was more than 30 µM each time.
Consider `CCC1(c2ccccc2)C(=O)NCNC1=O` [PRIMIDONE], for which the AC50 in experiment [1] was more than 10 µM; in [2] it was more than 10 µM; in [3], more than 30 µM; in experiment [4], more than 10 µM; in experiment [5], more than 10 µM; in experiment [6], more than 30 µM. For the same compound, the AC50 is more than 30 µM in experiment [7], more than 10 µM in experiment [8], more than 30 µM in experiment [9] and more than 10 µM in experiment [10].
As for `CC(=O)SCC(Cc1ccccc1)C(=O)NCC(=O)OCc1ccccc1` (stereo not given) [RACECADOTRIL], the AC50 in experiment [1], in experiment [2], in experiment [3], in experiment [4], in experiment [5] and in [6] was more than 30 µM each time. Also, the AC50 in experiment [7], in experiment [8], in [9] and in experiment [10] was more than 30 µM throughout.
For the compound `CCOc1ccccc1OCCN[C@H](C)Cc1ccc(OC)c(S(N)(=O)=O)c1` [TAMSULOSIN], the AC50 was more than 10 µM in [1]; 0.3 µM in [2]; more than 30 µM in [3]; 6.4 µM in experiment [4]; more than 30 µM in experiment [5]; more than 30 µM in experiment [6]. In addition, the AC50 in experiment [7] was more than 30 µM; in experiment [8] it was more than 30 µM; in [9], more than 30 µM; in experiment [10] it was more than 10 µM.
Turning to `C[C@H](Cn1cnc2c(N)ncnc21)OCP(=O)(O)O` [TENOFOVIR ANHYDROUS], the AC50 in experiment [1] was more than 30 µM; in experiment [2], more than 30 µM; in experiment [3], more than 10 µM; in [4], more than 30 µM; in experiment [5], more than 30 µM; in experiment [6], more than 30 µM. Moreover, the AC50 in experiment [7], in experiment [8], in experiment [9] and in experiment [10] was more than 30 µM each time.
Turning to `COc1cc2c(cc1OC)C1CC(=O)C(CC(C)C)CN1CC2` (stereo not given) [TETRABENAZINE], the AC50 is more than 30 µM in experiment [1]; more than 30 µM in experiment [2]; more than 30 µM in [3]; 8.6 µM in experiment [4]; more than 30 µM in experiment [5]; more than 30 µM in [6]. Moreover, the AC50 in [7], in [8], in [9] and in experiment [10] was more than 30 µM each time.
With `CC(C)(CO)c1cc2cc(NC(=O)C3(c4ccc5c(c4)OC(F)(F)O5)CC3)c(F)cc2n1C[C@@H](O)CO` [TEZACAFTOR], the AC50 in experiment [1] was more than 30 µM; in [2], more than 30 µM; in experiment [3], more than 30 µM; in experiment [4] it was more than 10 µM; in experiment [5], more than 30 µM; in experiment [6] it was more than 30 µM. Besides, the AC50 was more than 30 µM in [7], more than 30 µM in [8], 8.7 µM in experiment [9] and more than 30 µM in [10].
Turning to `CN(C)CCN(Cc1ccccc1)c1ccccn1` [TRIPELENNAMINE], the AC50 in experiment [1] is more than 10 µM; in experiment [2], 9.4 µM; in experiment [3], more than 30 µM; in experiment [4], more than 10 µM; in experiment [5], more than 10 µM; in experiment [6], more than 30 µM. Besides, the AC50 in experiment [7], in experiment [8], in experiment [9] and in [10] was more than 10 µM throughout.
Consider `Cc1c(C)c2c(c(C)c1O)CCC(C)(COc1ccc(CC3SC(=O)NC3=O)cc1)O2` (stereo not given) [TROGLITAZONE], for which the AC50 is more than 30 µM in experiment [1]; 24 µM in experiment [2]; more than 30 µM in [3]; 2 µM in experiment [4]; 22.9 µM in [5]; more than 30 µM in experiment [6]. Further, the AC50 in experiment [7] was more than 30 µM; in experiment [8] it was more than 30 µM; in experiment [9], 2.88 µM; in experiment [10], more than 30 µM.
Turning to `c1cnc2cc3c(cc2n1)[C@@H]1CNC[C@H]3C1` [VARENICLINE], the AC50 in experiment [1] is more than 30 µM; in [2], more than 30 µM; in [3], more than 30 µM; in [4] it was more than 30 µM; in experiment [5], more than 30 µM; in [6], 13 µM. Besides, the AC50 in [7], in [8], in [9] and in [10] was more than 30 µM each time.
